Experimental data as given in patent US20250042905A1, “DIHYDROPYRROLO[3,4-C]PYRAZOLE DERIVATIVES AND THEIR USE IN DIAGNOSIS” (AC IMMUNE SA, priority 2021, published 2025).

Target: T1, PD brain-derived alpha-synuclein aggregates (Homo sapiens, UniProt P37840)
T1 construct: PD brain-derived alpha-synuclein aggregates were spotted onto microarray slides; from tissue; host or cells: human Parkinson's disease patient brain
Assay: Micro-radiobinding competition assay for the determination of binding affinity
Description: Micro-Radiobinding Competition Assay for the Determination of Binding Affinity
PD brain-derived alpha-synuclein aggregates were spotted onto microarray slides. The slides were incubated with tritiated reference alpha-synuclein ligand at 20 nM or 30 nM and the example compounds (non-radiolabelled) at 1 μM and 100 nM. In some cases, the non-radiolabelled example compounds were further assessed for a range of different concentrations, varying from 0.05 nM to 2 μM. After incubation, slides were washed and scanned by a real-time autoradiography system (BeaQuant, ai4R). Quantification of the signal was performed by using the Beamage image analysis software (ai4R). Non-specific signal was determined with an excess of non-radiolabelled reference alpha-synuclein ligand (2 μM) and specific binding was calculated by subtracting the non-specific signal from the total signal. Competition was calculated as percent, where 0% was defined as the specific binding in the presence of vehicle and 100% as the values obtained in the presence of excess of the non-radiolabelled reference alpha-synuclein ligand. Ki values were calculated in GraphPad Prism7 by applying a nonlinear regression curve fit using a one site, specific binding model. All measurements were performed with at least two technical replicates.
Table 4: Assessment of binding affinity by micro-radiobinding competition assay on human PD brain-derived alpha-synuclein aggregates.

[1] = non-radiolabelled example compound at 100 nM, competition with tritiated reference alpha-synuclein ligand (20 nM or 30 nM), 100% = excess non-radiolabelled reference ligand
[2] = non-radiolabelled example compound at 1 μM, competition with tritiated reference alpha-synuclein ligand (20 nM or 30 nM), 100% = excess non-radiolabelled reference ligand

| SMILES | inhibition at 0.1 µM (non-radiolabelled example compound at 100 nM, competition with tritiated reference alpha-synuclein ligand (20 nM or 30 nM), 100% = excess non-radiolabelled reference ligand, read-out: Competition at 100 nM (%)) | inhibition at 1 µM (non-radiolabelled example compound at 1 μM, competition with tritiated reference alpha-synuclein ligand (20 nM or 30 nM), 100% = excess non-radiolabelled reference ligand, read-out: Competition at 1 μM (%)) | Competition at 100 nM (%) [1] | Competition at 1 μM (%) [2] | Ki (concentration range 0.05 nM to 2 μM, nonlinear regression, one site specific binding model) |
| --- | --- | --- | --- | --- | --- |
| O=C1c2cn(-c3ccc(C(F)(F)F)nn3)nc2CN1c1cccnc1 [Example 35, 5-(pyridin-3-yl)-2-(6-(trifluoromethyl)pyridazin-3-yl)-5,6-dihydropyrrolo[3,4-c]pyrazol-4(2H)-one] | 29% | 34% | – | – | – |
| O=C1c2cn(-c3cnc(N4CC[C@H](F)C4)nc3)nc2CN1c1cccnc1 [Example 36, 2-2-[(3S)-3-fluoropyrrolidin-1-yl]pyrimidin-5-yl-5-(pyridin-3-yl)-2H,4H,5H,6H-pyrrolo[3,4-c]pyrazol-4-one] | – | – | 37% | 64% | – |
| Cl.O=C1c2cn(-c3cnc(N4CC[C@@H](F)C4)nc3)nc2CN1c1cccnc1 [Example 37, 2-2-[(3R)-3-fluoropyrrolidin-1-yl]pyrimidin-5-yl-5-(pyridin-3-yl)-2H,4H,5H,6H-pyrrolo[3,4-c]pyrazol-4-one hydrochloride] | – | – | 32% | 78% | 356 nM |
